The text below walks through data of ChEMBL document CHEMBL1909046, “DrugMatrix in vitro pharmacology data”.

pIC50, pKi: −log10 of the molar value.

Sequence of Cytochrome P450 3A4 (P08684 whole entry): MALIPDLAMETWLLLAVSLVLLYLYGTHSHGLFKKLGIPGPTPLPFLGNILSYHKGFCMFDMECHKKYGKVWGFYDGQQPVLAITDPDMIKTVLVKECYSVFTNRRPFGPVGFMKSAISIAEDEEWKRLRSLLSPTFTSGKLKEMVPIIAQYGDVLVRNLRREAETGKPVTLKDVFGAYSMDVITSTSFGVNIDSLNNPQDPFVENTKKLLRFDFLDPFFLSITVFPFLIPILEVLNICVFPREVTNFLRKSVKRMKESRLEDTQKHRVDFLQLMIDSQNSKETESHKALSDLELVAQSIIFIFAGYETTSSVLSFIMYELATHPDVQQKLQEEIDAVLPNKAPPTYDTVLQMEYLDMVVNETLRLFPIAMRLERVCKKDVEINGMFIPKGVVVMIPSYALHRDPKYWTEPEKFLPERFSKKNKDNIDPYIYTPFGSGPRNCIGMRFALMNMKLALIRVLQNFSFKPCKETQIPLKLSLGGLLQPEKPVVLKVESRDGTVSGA
Sequence of Cytochrome P450 2C9 (P11712 whole entry): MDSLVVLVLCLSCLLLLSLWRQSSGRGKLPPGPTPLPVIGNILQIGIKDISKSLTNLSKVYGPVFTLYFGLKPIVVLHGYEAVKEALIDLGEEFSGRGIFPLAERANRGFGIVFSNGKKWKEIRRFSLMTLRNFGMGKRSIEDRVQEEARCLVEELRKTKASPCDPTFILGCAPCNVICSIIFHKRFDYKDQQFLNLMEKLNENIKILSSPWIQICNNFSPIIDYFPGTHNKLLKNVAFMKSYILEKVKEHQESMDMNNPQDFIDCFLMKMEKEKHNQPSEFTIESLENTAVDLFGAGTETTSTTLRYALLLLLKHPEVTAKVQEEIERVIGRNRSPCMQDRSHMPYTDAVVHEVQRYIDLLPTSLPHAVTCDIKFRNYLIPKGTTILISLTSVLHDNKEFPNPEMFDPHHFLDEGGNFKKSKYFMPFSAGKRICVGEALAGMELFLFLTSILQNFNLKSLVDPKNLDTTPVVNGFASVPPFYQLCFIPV

The first series has as its target Cytochrome P450 3A4 (Homo sapiens, UniProt P08684). The note with it: bti-tn-5b1-4. Note: in other assays of this panel Not Active means under 50% inhibition at 10 µM.
As to `CNCCCN1c2ccccc2CCc2ccccc21` [DESIPRAMINE], the IC50 result is on record as “Not Active” and the Ki result is “Not Active”.

As to `CNCCc1ccccn1` [BETAHISTINE], the IC50 entry is listed as “Not Active” and the Ki entry is “Not Active”.

For the molecule `Nc1nc(N)nc(-c2cc(Cl)ccc2Cl)n1.O=C(O)/C=C\C(=O)O` [IRSOGLADINE MALEATE], the IC50 result is given as “Not Active” and the Ki result is “Not Active”.

As for `COCCc1ccc(OCC(O)CNC(C)C)cc1` (centres undefined) [METOPROLOL], the IC50 result is given as “Not Active” and the Ki entry is reported as “Not Active”.

In the next series the target is T1, Muscarinic acetylcholine receptor M2 (Homo sapiens, UniProt P08172). Note: in other assays of this panel Not Active means under 50% inhibition at 10 µM.
T1 sequence (P08172 whole entry): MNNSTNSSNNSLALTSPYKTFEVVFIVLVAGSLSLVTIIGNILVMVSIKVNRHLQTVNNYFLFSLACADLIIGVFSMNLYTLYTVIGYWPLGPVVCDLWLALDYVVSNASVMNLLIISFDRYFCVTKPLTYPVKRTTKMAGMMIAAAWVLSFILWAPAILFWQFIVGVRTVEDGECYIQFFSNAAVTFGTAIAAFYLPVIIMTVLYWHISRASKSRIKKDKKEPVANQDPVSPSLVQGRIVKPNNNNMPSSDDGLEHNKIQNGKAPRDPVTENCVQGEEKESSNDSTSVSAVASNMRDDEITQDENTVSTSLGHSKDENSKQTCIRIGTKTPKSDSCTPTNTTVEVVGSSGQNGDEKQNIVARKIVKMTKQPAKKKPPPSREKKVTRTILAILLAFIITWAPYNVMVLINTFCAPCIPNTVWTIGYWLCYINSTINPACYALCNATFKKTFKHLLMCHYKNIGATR
It is filed as cell membranes, CHO-K1, Membrane. The note with it: cho-k1.
On to `CC(C)(Oc1ccc(Cl)cc1)C(=O)O` [CLOFIBRIC ACID], for which the IC50 result is listed as “Not Active”.

As to `C[C@]12CC[C@@H]3c4ccc(O)cc4CC[C@H]3[C@@H]1CCC2=O` [ESTRONE], the IC50 result was “Not Active”.

In the case of `CN(C)c1nc(N(C)C)nc(N(C)C)n1` [ALTRETAMINE], the IC50 entry is reported as “Not Active”.

With `CNCCCN1c2ccccc2CCc2ccccc21` [DESIPRAMINE], the IC50 entry is “Not Active”.

Take `N=C(N)NCCN1CCCCCCC1` [GUANETHIDINE]: the IC50 entry was “Not Active”.

For the molecule `CNCCc1ccccn1` [BETAHISTINE], the IC50 result is listed as “Not Active”.

Regarding `Nc1nc(N)nc(-c2cc(Cl)ccc2Cl)n1.O=C(O)/C=C\C(=O)O` [IRSOGLADINE MALEATE], the IC50 result is on record as “Not Active”.

Regarding `COc1cc2nc(N3CCN(C(=O)C4COc5ccccc5O4)CC3)nc(N)c2cc1OC` (centres undefined) [DOXAZOSIN], the IC50 result was “Not Active”.

For `COCCc1ccc(OCC(O)CNC(C)C)cc1` (centres undefined) [METOPROLOL], the IC50 entry is listed as “Not Active”.

The series is the same for the next values; noted with them: read-out: IC50.
The pIC50 is the IC50 on a negative log10 scale, so that one unit is a factor of ten. Take `CN(C)CCCN1c2ccccc2Sc2ccccc21` [PROMAZINE]: the pIC50 is 5.96.

The series is the same for the next values; noted with them: read-out: Ki.
What is called pKi is the negative decadic logarithm of the Ki, by convention in mol/L. On to `CN(C)CCCN1c2ccccc2Sc2ccccc21` [PROMAZINE], for which the pKi is 6.41.

The target in a further series is Beta-1 adrenergic receptor (Homo sapiens, UniProt P08588). Briefly: DRUGMATRIX: Adrenergic beta1 radioligand binding (ligand: [125I] Cyanopindolol). It is filed as cell membranes, CHO-K1, Membrane. Conditions: cho-k1; Not Active = under 50% inhibition at 10 µM.
Sequence of Beta-1 adrenergic receptor (P08588 whole entry): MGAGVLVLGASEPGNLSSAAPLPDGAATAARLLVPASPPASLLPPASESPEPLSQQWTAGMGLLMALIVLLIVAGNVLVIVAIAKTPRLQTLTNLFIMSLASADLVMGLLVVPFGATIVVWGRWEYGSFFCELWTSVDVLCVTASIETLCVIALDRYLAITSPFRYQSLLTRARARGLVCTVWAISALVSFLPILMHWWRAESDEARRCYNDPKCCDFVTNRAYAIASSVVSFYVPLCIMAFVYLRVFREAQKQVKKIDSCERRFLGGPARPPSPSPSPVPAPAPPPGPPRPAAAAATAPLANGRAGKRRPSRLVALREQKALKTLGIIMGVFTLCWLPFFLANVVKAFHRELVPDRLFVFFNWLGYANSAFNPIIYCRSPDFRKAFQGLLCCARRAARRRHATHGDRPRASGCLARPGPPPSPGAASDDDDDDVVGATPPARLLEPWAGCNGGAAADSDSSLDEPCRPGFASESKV
For the molecule `CC(C)(Oc1ccc(Cl)cc1)C(=O)O` [CLOFIBRIC ACID], the IC50 entry was “Not Active”.

As for `C[C@]12CC[C@@H]3c4ccc(O)cc4CC[C@H]3[C@@H]1CCC2=O` [ESTRONE], the IC50 entry is listed as “Not Active”.

As to `CN(C)c1nc(N(C)C)nc(N(C)C)n1` [ALTRETAMINE], the IC50 result is recorded as “Not Active”.

On to `CN(C)CCCN1c2ccccc2Sc2ccc(Cl)cc21` [CHLORPROMAZINE], for which the IC50 result is listed as “Not Active”.

In the case of `CN(C)CCCN1c2ccccc2Sc2ccccc21` [PROMAZINE], the IC50 entry is “Not Active”.

In the case of `N=C(N)NCCN1CCCCCCC1` [GUANETHIDINE], the IC50 result is on record as “Not Active”.

Tested on in a further series: not listed separately
Briefly: DRUGMATRIX: Phorbol Ester radioligand binding (ligand: [3H] PDBu). It is filed as cell membranes, Mus musculus, ICR, Brain, Membrane. The note with it: Not Active = under 50% inhibition at 10 µM.
`CC(C)(Oc1ccc(Cl)cc1)C(=O)O` [CLOFIBRIC ACID]: the IC50 result is on record as “Not Active” and the Ki entry was “Not Active”.

As for `C[C@]12CC[C@@H]3c4ccc(O)cc4CC[C@H]3[C@@H]1CCC2=O` [ESTRONE], the IC50 result was “Not Active” and the Ki result is reported as “Not Active”.

With `CN(C)c1nc(N(C)C)nc(N(C)C)n1` [ALTRETAMINE], the IC50 result is “Not Active” and the Ki entry is reported as “Not Active”.

Regarding `CN(C)CCCN1c2ccccc2Sc2ccc(Cl)cc21` [CHLORPROMAZINE], the IC50 entry is “Not Active” and the Ki result was “Not Active”.

On to `CN(C)CCCN1c2ccccc2Sc2ccccc21` [PROMAZINE], for which the IC50 entry was “Not Active” and the Ki result is “Not Active”.

As for `CNCCCN1c2ccccc2CCc2ccccc21` [DESIPRAMINE], the IC50 result is recorded as “Not Active” and the Ki result was “Not Active”.

On to `N=C(N)NCCN1CCCCCCC1` [GUANETHIDINE], for which the IC50 entry was “Not Active” and the Ki result is reported as “Not Active”.

`CNCCc1ccccn1` [BETAHISTINE]: the IC50 entry is recorded as “Not Active” and the Ki result was “Not Active”.

`Nc1nc(N)nc(-c2cc(Cl)ccc2Cl)n1.O=C(O)/C=C\C(=O)O` [IRSOGLADINE MALEATE]: the IC50 result is given as “Not Active” and the Ki result was “Not Active”.

Turning to `COc1cc2nc(N3CCN(C(=O)C4COc5ccccc5O4)CC3)nc(N)c2cc1OC` (centres undefined) [DOXAZOSIN], the IC50 entry was “Not Active” and the Ki entry is on record as “Not Active”.

`COCCc1ccc(OCC(O)CNC(C)C)cc1` (centres undefined) [METOPROLOL]: the IC50 entry is recorded as “Not Active” and the Ki entry was “Not Active”.

Tested on in the next series: not listed separately
Description: DRUGMATRIX: Sigma2 radioligand binding (ligand: [3H] Ifenprodil). It counts as cell membranes, Rattus norvegicus, Wistar, Brain, Membrane. The note with it: Not Active = under 50% inhibition at 10 µM.
As for `CC(C)(Oc1ccc(Cl)cc1)C(=O)O` [CLOFIBRIC ACID], the IC50 entry is given as “Not Active” and the Ki result was “Not Active”.

As for `C[C@]12CC[C@@H]3c4ccc(O)cc4CC[C@H]3[C@@H]1CCC2=O` [ESTRONE], the IC50 entry is recorded as “Not Active” and the Ki result is “Not Active”.

For the molecule `CN(C)c1nc(N(C)C)nc(N(C)C)n1` [ALTRETAMINE], the IC50 entry is reported as “Not Active” and the Ki entry is recorded as “Not Active”.

With `CNCCCN1c2ccccc2CCc2ccccc21` [DESIPRAMINE], the IC50 result is “Not Active” and the Ki entry is recorded as “Not Active”.

Regarding `N=C(N)NCCN1CCCCCCC1` [GUANETHIDINE], the IC50 entry is “Not Active” and the Ki entry is “Not Active”.

Regarding `CNCCc1ccccn1` [BETAHISTINE], the IC50 entry was “Not Active” and the Ki entry is given as “Not Active”.

Regarding `Nc1nc(N)nc(-c2cc(Cl)ccc2Cl)n1.O=C(O)/C=C\C(=O)O` [IRSOGLADINE MALEATE], the IC50 entry is on record as “Not Active” and the Ki entry is “Not Active”.

As for `COc1cc2nc(N3CCN(C(=O)C4COc5ccccc5O4)CC3)nc(N)c2cc1OC` (centres undefined) [DOXAZOSIN], the IC50 result was “Not Active” and the Ki result is “Not Active”.

Consider `COCCc1ccc(OCC(O)CNC(C)C)cc1` (centres undefined) [METOPROLOL], for which the IC50 result is given as “Not Active” and the Ki entry is “Not Active”.

Still in this series, the particulars now being: Not Active = under 50% inhibition at 10 µM; read-out: IC50.
`CN(C)CCCN1c2ccccc2Sc2ccc(Cl)cc21` [CHLORPROMAZINE]: the pIC50 was 5.57.

Consider `CN(C)CCCN1c2ccccc2Sc2ccccc21` [PROMAZINE], for which the pIC50 was 5.60.

The series is the same for the next values; noted with them: Not Active = under 50% inhibition at 10 µM; read-out: Ki.
Consider `CN(C)CCCN1c2ccccc2Sc2ccc(Cl)cc21` [CHLORPROMAZINE], for which the negative-log Ki (pKi) was 5.78.

`CN(C)CCCN1c2ccccc2Sc2ccccc21` [PROMAZINE]: the pKi is 5.81.

Another series concerns the target Cytochrome P450 2C9 (Homo sapiens, UniProt P11712). The note with it: bti-tn-5b1-4. Note: in other assays of this panel Not Active means under 50% inhibition at 10 µM.
With `CNCCCN1c2ccccc2CCc2ccccc21` [DESIPRAMINE], the IC50 result is recorded as “Not Active” and the Ki result is recorded as “Not Active”.

Turning to `CNCCc1ccccn1` [BETAHISTINE], the IC50 entry is “Not Active” and the Ki result is “Not Active”.

As for `Nc1nc(N)nc(-c2cc(Cl)ccc2Cl)n1.O=C(O)/C=C\C(=O)O` [IRSOGLADINE MALEATE], the IC50 result was “Not Active” and the Ki entry is given as “Not Active”.

For `COc1cc2nc(N3CCN(C(=O)C4COc5ccccc5O4)CC3)nc(N)c2cc1OC` (centres undefined) [DOXAZOSIN], the IC50 entry is listed as “Not Active” and the Ki result was “Not Active”.

Regarding `COCCc1ccc(OCC(O)CNC(C)C)cc1` (centres undefined) [METOPROLOL], the IC50 entry is “Not Active” and the Ki entry is listed as “Not Active”.
